In PubChem BioAssay (NCI):
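96-well plates; 48 h exposure; 5 concentrations. Endpoints by linear interpolation between flanking doses. Not reached: highest tested concentration assigned. The concentration for full growth arrest is given as TGI.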

Experiments:
Assay in all cases: DTP human tumour cell line panel, 48 h
[1] = test system: 786-0 renal
[2] = test system: A498 renal
[3] = test system: A549 NSCLC
[4] = test system: ACHN renal
[5] = test system: CAKI-1 renal
[6] = test system: CCRF-CEM leukemia
[7] = test system: COLO 205 colon
[8] = test system: DU-145 prostate
[9] = test system: EKVX NSCLC
[10] = test system: HCT-116 colon
[11] = test system: HCT-15 colon
[12] = test system: HL-60(TB) leukemia
[13] = test system: HOP-62 NSCLC
[14] = test system: HOP-92 NSCLC
[15] = test system: HS 578T breast
[16] = test system: HT29 colon
[17] = test system: IGROV1 ovarian
[18] = test system: K-562 leukemia
[19] = test system: KM12 colon
[20] = test system: LOX IMVI melanoma
[21] = test system: M14 melanoma
[22] = test system: MCF7 breast
[23] = test system: MDA-MB-231 breast
[24] = test system: MDA-MB-435
[25] = test system: MDA-N
[26] = test system: MOLT-4 leukemia
[27] = test system: NCI-H226 lung
[28] = test system: NCI-H23 lung
[29] = test system: NCI-H460 lung
[30] = test system: NCI-H522 lung
[31] = test system: NCI/ADR-RES ovarian
[32] = test system: OVCAR-3 ovarian
[33] = test system: OVCAR-4 ovarian
[34] = test system: OVCAR-5 ovarian
[35] = test system: OVCAR-8 ovarian
[36] = test system: PC-3 prostate
[37] = test system: RPMI-8226 leukemia
[38] = test system: SF-268 CNS
[39] = test system: SF-295 CNS
[40] = test system: SF-539 CNS
[41] = test system: SK-MEL-2 melanoma
[42] = test system: SK-MEL-28 melanoma
[43] = test system: SK-MEL-5 melanoma
[44] = test system: SK-OV-3 ovarian
[45] = test system: SN12C renal
[46] = test system: SNB-19 CNS
[47] = test system: SNB-75 CNS
[48] = test system: SR leukemia
[49] = test system: SW-620 colon
[50] = test system: T-47D breast
[51] = test system: TK-10 renal
[52] = test system: U251 CNS
[53] = test system: UACC-257 melanoma
[54] = test system: UACC-62 melanoma
[55] = test system: UO-31 renal

Measured: TGI

CON(C)C(=O)C1CCCO1 (stereo not given)
> 100 µM: all assays above
